Read-outs that look alike come from different tables or passages of the source. Values belong to the molecule of their own block, whether it stands above or below them.
Columns and labels:
ABCG2 [1] = target: T1, ABCG2 (Homo sapiens, UniProt Q9UNQ0); test: Vanadate sensitive ABCG2-ATPase assay in ABCG2-Sf9 (insect cell) membranes
T1 sequence (Q9UNQ0 1-655): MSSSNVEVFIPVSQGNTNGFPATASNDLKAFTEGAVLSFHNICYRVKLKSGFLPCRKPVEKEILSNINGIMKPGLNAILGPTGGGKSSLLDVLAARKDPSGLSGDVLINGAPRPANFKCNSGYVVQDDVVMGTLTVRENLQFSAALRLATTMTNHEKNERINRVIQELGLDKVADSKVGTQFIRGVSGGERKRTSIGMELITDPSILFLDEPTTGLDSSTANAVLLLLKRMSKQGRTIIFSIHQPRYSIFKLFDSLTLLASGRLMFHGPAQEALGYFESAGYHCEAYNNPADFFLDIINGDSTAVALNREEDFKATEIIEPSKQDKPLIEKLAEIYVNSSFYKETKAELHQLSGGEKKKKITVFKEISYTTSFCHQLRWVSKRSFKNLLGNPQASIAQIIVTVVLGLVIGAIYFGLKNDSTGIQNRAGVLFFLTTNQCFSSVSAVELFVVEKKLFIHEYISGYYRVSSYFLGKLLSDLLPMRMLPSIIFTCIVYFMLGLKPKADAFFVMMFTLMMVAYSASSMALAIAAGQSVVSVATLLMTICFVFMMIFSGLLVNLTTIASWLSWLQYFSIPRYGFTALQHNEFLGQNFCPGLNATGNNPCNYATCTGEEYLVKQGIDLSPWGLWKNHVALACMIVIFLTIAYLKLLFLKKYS
Method: (§1) Measurement of transporter activity: The ATPase activity of transporters are measured based on their vanadate sensitivity as known in the literature (see Noe et al. Hepatology, 2001, Vol. 33, No. 5, pp 1223-31; Schmitt et al. J. Neural. Transm., in press; Özvegy C et al. “Functional characterization of the human multidrug transporter, ABCG2, expressed in insect cells” Biochem Biophys Res Commun. 2001 July 6; 285(1):111-7.; Sarkadi, B. et al. (1992) Expression of the human multidrug resistance cDNA in insect cells generates a high activity drug-stimulated membrane ATPase. J Biol Chem 267: 4854-4858.).
(§2) The samples treated with cyclodextrin, or cholesterol@RAMEB complex was compared with untreated vesicles.
(§3) Briefly, as an example, membrane vesicles (20 μg/well) were incubated in ATPase assay buffer (10 mM MgCl2, 40 mM MOPS-Tris (pH 7.0), 50 mM KCl, 5 mM dithiothreitol, 0.1 mM EGTA, 4 mM sodium azide, 1 mM ouabain), 5 mM ATP and various concentrations of test drugs for 40 min at 37° C. ATPase activities were determined as the difference of inorganic phosphate liberation measured with and without the presence of 1.2 mM sodium orthovanadate (vanadate-sensitive ATPase activity).
EC50 is defined according to the International Union of Pharmacology Committee (Neubig, R. R., Spedding, M., Kenakin, T. and Christopoulos, A. (2003) International Union of Pharmacology Committee on Receptor Nomenclature and Drug Classification. XXXVIII. Update on terms and symbols in quantitative pharmacology. Pharmacol Rev 55: 597-606.).
The Michaelis-Menten parameters of maximal velocity (Vmax) and drug affinity (Km) were obtained from plots of the ATPase activity as a function of test drug concentration by nonlinear regression of the following equation:
where v=enzyme activity (nmol Pi/min/mg), Vmax=maximal ATPase activity (nmol Pi/min/mg), Km=Michaelis-Menten constant for the tested substrate (nM) and [S] substrate concentration (nM). The equation 3 was used also for curve fitting on vesicular transport graphs.

ABCG2 [2] = target: T1, ABCG2; test: Vanadate sensitive ABCG2-ATPase assay in ABCG2-M (mammalian cell) membranes
Method: Human membrane vesicle preparations (ABCG2-M) as well as membrane vesicle preparations obtained from insect cells expressing ABCG2, (MXR-Sf9) were obtained from Solvo Biotechnology (Budapest, Hungary). Both membranes are overexpressing the wild type version of ABCG2. The insect membrane vesicle preparations were produced using recombinant baculoviruses encoding ABCG2 (Ozvegy et al., 2002). Sf9 cells were cultured and infected with recombinant baculovirus stocks as described earlier (Sarkadi et al., 1992). Purified membrane vesicles from baculovirus-infected Sf9 cells were prepared essentially as described previously (Sarkadi et al., 1992). Membrane protein content was determined using the BCA method (Pierce Biotechnology, Rockford, Ill., USA).
as §1, §2, §3

wild-type ABCG2 = target: T2, wild-type ABCG2 (Homo sapiens, UniProt Q9UNQ0); test: Vesicular transport assay, inside-out ABCG2-Sf9 membrane vesicles
T2 sequence (Q9UNQ0 1-655): T1 sequence (Q9UNQ0 1-655)
Method: Measurement of the vesicular transport activity: The transport activity measurements were carried out with purified membrane vesicles containing ABCG2 or Bsep isolated from baculovirus infected Sf9 (Spodoptera frugiperda) cells or mammalian (ABCG2-M) cells. The membrane preparations contain 5-16% closed, inside-out oriented, membrane vesicles. The transporter pumps the molecules inside of these vesicles. The vesicles can be separated by rapidly filtrating of the membrane suspension through a glass filter or through a nitrocellulose membrane (using vacuum).
The quantitative determination of the transported molecule can be done in several ways, like: HPLC, LC/MS, but also fluorescent or radioactive labeling is also suitable. Tritium labeled substrates were used in the assays and the mode of detection was liquid-scintillation.
Measurement of the vesicular transport activity in case of ABCG2: More closely, as examples, inside-out membrane vesicles were incubated in the presence or absence of 4 mM ATP. […] The transport was stopped by addition of cold wash buffer (40 mM MOPS-Tris (pH 7.0), 70 mM KCl).
The transport was stopped by addition of cold wash buffer (10 mM Tris-HCl, pH 7.4; 250 mM sucrose and 100 mM NaCl).
For estrone-3-sulfate vesicular transport 10 mM Tris-HCl, (pH 7.4), 250 mM sucrose, and 10 mM MgCl2 containing buffer were incubated at 32° C. for 1 min. The transport was stopped by addition of cold wash buffer (10 mM Tris-HCl, pH 7.4; 250 mM sucrose and 100 mM NaCl).
The incubation mix was then rapidly filtered through class B glass fiber filters (pore size, 0.1 μm). Filters were washed with 5×200 μl of ice cold wash buffer and radioactivity retained on the filter was measured by liquid scintillation counting. ATP-dependent transport was calculated by subtracting the values obtained in the absence of ATP from those in the presence of ATP.
Exemplary Assay Design and Main Steps for ABCG2 • Prepare an appropriate concentration of membrane suspension in assay buffer; add the unlabeled and ^3H-labeled substrates to the suspension.

[3] = substrate: CN(Cc1cnc2nc(N)nc(N)c2n1)c1ccc(C(=O)N[C@@H](CCC(=O)O)C(=O)O)cc1; test: cells, lysate or membranes named

Molecule: rhodamine
- Effect on ABCG2-ATPase activity (in words) (ABCG2 [1]; cholesterol loaded Sf9 membranes): did not display any effect

Molecule: COc1cc2ncnc(Nc3ccc(F)c(Cl)c3)c2cc1OCCCN1CCOCC1 [ZD 1839, Gefitinib]
- Level of stimulation (vanadate sensitive ATPase activity in %) (ABCG2 [1]; human, 40 min, 5 uM, pH 7): 73 ± 19 (3) %

Molecule: O=C(O)c1cc(/N=N/c2ccc(S(=O)(=O)Nc3ccccn3)cc2)ccc1O [Sulfasalazine, sulfasalazine]
- Effect on ABCG2-ATPase activity (in words) (ABCG2 [2]): significantly stimulated
- Vanadate sensitive ABCG2 ATPase activity activated by the substrate (ABCG2 [2]; human, 40 min, pH 7): 40 nmol/Pi/mg prot/min
- Effect on ABCG2-ATPase activity (in words) (ABCG2 [1]): weak activator
- Level of stimulation (vanadate sensitive ATPase activity in %) (ABCG2 [1]; human, 40 min, 20 uM, pH 7): 71% (3)
- Increase of vanadate sensitive ABCG2 ATPase activity in the presence of the substrate (ABCG2 [1]; human, 40 min, pH 7): 5 nmol/Pi/mg prot/min
- Vanadate sensitive ABCG2 ATPase activity activated by the substrate (ABCG2 [1]; human, 40 min, pH 7): 58 nmol/Pi/mg prot/min

Molecule: O=C1c2c(O)ccc(O)c2C(=O)c2c(NCCNCCO)ccc(NCCNCCO)c21 [mitoxantrone]
- Effect on ABCG2-ATPase activity (in words) (ABCG2 [1]): did not display any effect

Molecule: C[C@]12CC[C@@H]3c4ccc(O)cc4CC[C@H]3[C@@H]1CC[C@@H]2O[C@@H]1O[C@H](C(=O)O)[C@@H](O)[C@H](O)[C@H]1O [ESG, estradiol 17-beta glucuronide]
- apparent Vmax of ESG uptake (wild-type ABCG2; cholesterol-loaded vesicles): 700 pmol ESG/mg membrane protein/min
- apparent Vmax of ESG uptake (wild-type ABCG2; control Sf9 membrane vesicles): less than 50 pmol ESG/mg membrane protein/min
- Km (wild-type ABCG2; read-out: apparent Km for ESG, cholesterol-loaded vesicles): ~45 µM

Molecule: Nc1ncnc2c1ncn2[C@@H]1O[C@H](COP(=O)(O)OP(=O)(O)OP(=O)(O)O)[C@@H](O)[C@H]1O [ATP]
- ATP concentration of maximum MTX transport rate (wild-type ABCG2): about 5 mM
- Km (wild-type ABCG2): 600 to 800 µM
- Km (ABCG2 [2]; read-out: KM of vanadate sensitive basal ATPase activity with respect to ATP, ABCG2-M membranes): 2200 µM
- Km (ABCG2 [1]): 2000 µM

B1: wild-type ABCG2 (Homo sapiens) (protein)
chain: T1 sequence (Q9UNQ0 1-655)
- Km ([3]; other: ABCG2-Sf9 membranes): 3900 µM
- Km ([3]; other: both untreated and C-CD pretreated vesicles): 500 µM
- Km ([3]; other: untreated membranes, ± S.D.): 935 µM

B2: ABCG2 (Homo sapiens) (protein)
chain: T1 sequence (Q9UNQ0 1-655)
- Km ([3]; other: ABCG2-M membranes, pH 7.0, 37.0 °C): 3600 µM

Second part, the molecule after the results:

- Effect on ABCG2-ATPase activity (in words) (ABCG2 [2]): significantly stimulated
- Level of stimulation (vanadate sensitive ATPase activity in %) (ABCG2 [1]; human, 40 min, 200 uM, pH 7): 31%
- Effect on ABCG2-ATPase activity (in words) (ABCG2 [1]; human, 40 min, pH 7): can not be activated
Molecule: CC[C@@]1(O)C(=O)OCc2c1cc1n(c2=O)Cc2cc3c(CN(C)C)c(O)ccc3nc2-1 [Topotecan, topotecan]

- Level of stimulation (vanadate sensitive ATPase activity in %) (ABCG2 [1]; human, 40 min, 50 uM, pH 7): 83 ± 18 (3) %
Molecule: COc1cccc2c1C(=O)c1c(O)c3c(c(O)c1C2=O)C[C@@](O)(C(=O)CO)C[C@@H]3O[C@H]1C[C@H](N)[C@H](O)[C@H](C)O1 [Doxorubicin]

- Vmax (ABCG2-ATPase) (ABCG2 [2]): 38.87 nmol Pi/mg prot./min
- Vmax (ABCG2-ATPase) (ABCG2 [1]): 35.58 nmol Pi/mg prot./min
Molecule: C[C@]12CC[C@@H]3c4ccc(OS(=O)(=O)O)cc4CC[C@H]3[C@@H]1CCC2=O [Estrone-3-sulfate, estrone 3-sulfate]

- Effect of membrane pretreatment on ABCG2-dependent transport activity (in words) (wild-type ABCG2): did not significantly affect
Molecule: Randomly methylated-β-cyclodextrin [CD]
